The results in this text go back to patent US12570671B2 (BRISTOL-MYERS SQUIBB COMPANY, priority 2020, dated 2026).

A value given as a limit tells only on which side of the number the result lay.

Experiment [1] has as its target Helios (Homo sapiens, UniProt Q96SW2+Q9UKS7). Briefly: Helios Cellular Degradation Assay (Helios readout). The arrangement: endogenous in cells; host or cells: Jurkat. It counts as cell-based. Conditions: Jurkat cells, 72 h incubation, Helios-PE antibody staining, flow cytometry; read-out: Helios Jurkat IC50. The procedure:
(§1) Jurkat cells were plated at 80,000 cells/well in 40 μL RPMI+10% FBS in a 384 well cell culture plate prior to using acoustic dispensing technology for adding compound of interest. Cell cultures were incubated for 72 h at 37° C. and 5% C02. In order to facilitate analysis, cell cultures were spun down at 200 rpm for 5 min and the supernatant was discarded. After shaking the plate to dislodge the cell pellet, cells were resuspended in 50 μL of Fixation Buffer (eBioScience FoxP3 buffer set 00-5523-00) for 60 min at room temperature. After centrifuging and discarding the supernatant, cells were permeabilized with 50 μL of Permeabilization buffer (eBioScience FoxP3 buffer set 00-5523-00) for 10 min at room temperature. Following permeabilization, cells were spun down and the supernatant was replaced with 20 μL fluorescently labelled antibodies against Helios, Ikaros and Aiolos or corresponding Isotype controls in 1× Permeabilization buffer (Ikaros-Alexa488 [Biolegend, Cat #368408, 1:50], Helios-PE [CST, Cat #29360, 1:50], Aiolos-Alexa647 [Biolegend, Cat #371106Biolegend, 1:25]) and staining reactions were incubated for 1 h at room temperature; protected from light. Subsequently, 30 μL of 1× Permeabilization buffer was added prior to centrifuging the cells and discarding the supernatant. Stained cells were resuspended in 25 μL of flow cytometry staining buffer (PBS+0.2% BSA) and analyzed using an Intellicyt Ique Plus flow cytometer.

Experiment [2] deals with Ikaros (Homo sapiens, UniProt Q13422+Q96SW2). Briefly: Helios Cellular Degradation Assay (Ikaros readout). It counts as cell-based. Details: endogenous in cells; host or cells: Jurkat. Conditions: Jurkat cells, 72 h incubation, Ikaros-Alexa488 antibody staining, flow cytometry; read-out: Ikaros Jurkat IC50. The procedure: as §1
(In flow cytometry, cells or beads pass a laser one at a time.)

Chain of Ikaros (Q13422 whole entry): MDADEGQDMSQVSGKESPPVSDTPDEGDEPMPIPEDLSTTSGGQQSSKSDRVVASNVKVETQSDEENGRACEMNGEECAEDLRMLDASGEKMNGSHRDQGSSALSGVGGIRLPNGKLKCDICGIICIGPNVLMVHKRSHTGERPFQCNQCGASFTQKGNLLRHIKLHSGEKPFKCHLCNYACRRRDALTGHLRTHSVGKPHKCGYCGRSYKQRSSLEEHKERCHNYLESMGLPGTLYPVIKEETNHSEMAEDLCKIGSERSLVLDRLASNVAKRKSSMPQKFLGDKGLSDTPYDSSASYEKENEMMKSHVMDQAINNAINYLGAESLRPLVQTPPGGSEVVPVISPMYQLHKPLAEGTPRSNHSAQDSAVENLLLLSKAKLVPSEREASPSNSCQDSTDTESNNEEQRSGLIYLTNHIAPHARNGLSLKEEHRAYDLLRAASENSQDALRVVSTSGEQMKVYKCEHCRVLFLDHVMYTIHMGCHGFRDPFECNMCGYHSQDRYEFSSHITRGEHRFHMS
Chain of Ikaros (Q96SW2 whole entry): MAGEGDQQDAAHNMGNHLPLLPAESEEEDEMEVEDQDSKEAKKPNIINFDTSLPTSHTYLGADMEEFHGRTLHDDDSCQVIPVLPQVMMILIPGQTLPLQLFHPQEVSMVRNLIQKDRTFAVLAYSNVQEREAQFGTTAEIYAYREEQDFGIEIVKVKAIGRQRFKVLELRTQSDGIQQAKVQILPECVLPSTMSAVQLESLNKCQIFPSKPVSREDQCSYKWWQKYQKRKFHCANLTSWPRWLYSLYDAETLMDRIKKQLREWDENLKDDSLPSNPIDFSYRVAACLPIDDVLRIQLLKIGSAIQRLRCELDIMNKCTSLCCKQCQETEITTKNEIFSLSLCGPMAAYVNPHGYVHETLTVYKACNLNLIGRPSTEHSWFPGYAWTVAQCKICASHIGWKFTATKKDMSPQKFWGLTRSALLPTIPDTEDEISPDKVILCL
Chain of Ikaros (Q16531 whole entry partner): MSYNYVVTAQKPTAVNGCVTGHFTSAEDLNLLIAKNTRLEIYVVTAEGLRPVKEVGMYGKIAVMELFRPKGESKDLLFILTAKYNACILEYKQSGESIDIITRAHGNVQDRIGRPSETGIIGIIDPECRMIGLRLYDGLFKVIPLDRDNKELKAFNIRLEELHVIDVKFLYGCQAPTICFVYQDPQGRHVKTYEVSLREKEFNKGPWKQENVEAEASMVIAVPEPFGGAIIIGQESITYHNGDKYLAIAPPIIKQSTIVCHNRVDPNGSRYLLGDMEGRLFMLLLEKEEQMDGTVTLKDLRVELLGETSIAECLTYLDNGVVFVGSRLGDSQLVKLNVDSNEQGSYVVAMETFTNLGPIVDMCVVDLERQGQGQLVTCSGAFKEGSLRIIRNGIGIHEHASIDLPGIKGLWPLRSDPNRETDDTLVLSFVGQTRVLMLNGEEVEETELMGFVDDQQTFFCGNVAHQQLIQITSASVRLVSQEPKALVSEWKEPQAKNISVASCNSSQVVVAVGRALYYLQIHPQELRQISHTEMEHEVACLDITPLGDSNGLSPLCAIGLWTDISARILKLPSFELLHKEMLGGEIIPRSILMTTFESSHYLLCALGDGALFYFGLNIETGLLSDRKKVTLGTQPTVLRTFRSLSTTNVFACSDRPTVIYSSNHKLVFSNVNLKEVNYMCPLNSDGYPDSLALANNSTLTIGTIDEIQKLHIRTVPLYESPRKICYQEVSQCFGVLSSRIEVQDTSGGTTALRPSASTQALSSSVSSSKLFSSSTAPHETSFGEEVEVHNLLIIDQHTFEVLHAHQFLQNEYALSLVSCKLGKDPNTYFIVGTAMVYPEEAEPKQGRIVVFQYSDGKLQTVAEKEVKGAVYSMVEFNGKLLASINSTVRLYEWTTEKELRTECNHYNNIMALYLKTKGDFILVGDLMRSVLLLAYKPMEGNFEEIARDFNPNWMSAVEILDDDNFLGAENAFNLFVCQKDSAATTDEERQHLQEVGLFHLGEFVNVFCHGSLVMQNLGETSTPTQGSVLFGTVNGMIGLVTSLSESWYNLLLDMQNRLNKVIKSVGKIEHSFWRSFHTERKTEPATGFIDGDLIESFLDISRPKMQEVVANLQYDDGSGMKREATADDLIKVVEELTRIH
Chain of Helios (Q9UKS7 whole entry): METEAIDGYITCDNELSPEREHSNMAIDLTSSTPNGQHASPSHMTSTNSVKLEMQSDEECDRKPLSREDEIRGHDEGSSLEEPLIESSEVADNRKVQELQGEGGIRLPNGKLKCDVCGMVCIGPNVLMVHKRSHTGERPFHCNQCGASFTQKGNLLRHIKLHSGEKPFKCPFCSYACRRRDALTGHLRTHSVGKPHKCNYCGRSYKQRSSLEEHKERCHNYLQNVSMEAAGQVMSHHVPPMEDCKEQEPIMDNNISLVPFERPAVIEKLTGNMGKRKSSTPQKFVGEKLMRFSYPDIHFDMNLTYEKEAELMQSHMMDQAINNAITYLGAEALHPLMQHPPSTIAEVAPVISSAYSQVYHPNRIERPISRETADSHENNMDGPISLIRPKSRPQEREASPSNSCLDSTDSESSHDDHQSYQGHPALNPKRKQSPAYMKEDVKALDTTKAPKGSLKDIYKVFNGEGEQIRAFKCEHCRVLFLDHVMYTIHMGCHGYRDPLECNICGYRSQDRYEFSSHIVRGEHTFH
Chain of Helios (Q96SW2 whole entry): as the sequence (Q96SW2 whole entry) above
Chain of Helios (Q16531 whole entry partner): as the sequence (Q16531 whole entry partner) above

Consider `CC(=O)Nc1nc(-c2ccc3c(c2)CN(C2CCC(=O)NC2=O)C3=O)cc(C)c1C` (stereo not shown) [Example 167, N-(6-(2-(2,6-dioxopiperidin-3-yl)-1-oxoisoindolin-5-yl)-3,4-dimethylpyridin-2-yl) acetamide], for which the DC50 is 50 nM in experiment [1] and more than 10 µM in experiment [2].

As to `COc1cc2nc(-c3ccc4c(c3)CN(C3CCC(=O)NC3=O)C4=O)nc(N)c2cc1OC` (stereo not shown) [Example 16, 3-[5-(4-amino-6,7-dimethoxyquinazolin-2-yl)-1-oxo-2,3-dihydro-1H-isoindol-2-yl]piperidine-2,6-dione], the DC50 in experiment [1] is 30 nM; in experiment [2], more than 20 µM.

Turning to `O=C1CCC(N2Cc3cc(-c4ncc(Br)c5cc[nH]c45)ccc3C2=O)C(=O)N1` (stereo not shown) [Example 56, 3-(5-{4-bromo-1H-pyrrolo[2,3-c]pyridin-7-yl}-1-oxo-2,3-dihydro-1H-isoindol-2-yl) piperidine-2,6-dione], the DC50 came to 27 nM in experiment [1] and 0.049 µM in experiment [2].

Regarding `N#Cc1cc2ccccc2c(-c2ccc3c(c2)CN(C2CCC(=O)NC2=O)C3=O)n1` (stereo not shown) [Example 59, 1-[2-(2,6-dioxopiperidin-3-yl)-1-oxo-2,3-dihydro-1H-isoindol-5-yl]isoquinoline-3-carbonitrile], the DC50 in experiment [1] is 24 nM.

Turning to `Cc1cc(-c2ccc3c(c2)CN(C2CCC(=O)NC2=O)C3=O)nc(N)c1C` (stereo not shown) [Example 151, 3-(5-(6-amino-4,5-dimethylpyridin-2-yl)-1-oxoisoindolin-2-yl)piperidine-2,6-dione], the figures for the DC50 in experiment [1] and in experiment [2] were 10 nM and not below 10 µM, respectively.

`CC(=O)Nc1nc(-c2ccc3c(c2)CN(C2CCC(=O)NC2=O)C3=O)cc2ccccc12` (stereo not shown) [Example 48, N-{3-[2-(2,6-Dioxopiperidin-3-yl)-1-oxo-2,3-dihydro-1H-isoindol-5-yl]isoquinolin-1-yl}acetamide]: the DC50 in experiment [1] is 90 nM; in experiment [2] it was more than 20 µM.

On to `Cc1cc(-c2ccc3c(c2)CN(C2CCC(=O)NC2=O)C3=O)ncc1C#N` (stereo not shown) [Example 152, 6-(2-(2,6-dioxopiperidin-3-yl)-1-oxoisoindolin-5-yl)-4-methylnicotinonitrile], for which the DC50 was 760 nM in experiment [1] and not below 10 µM in experiment [2].

On to `CCCc1cc(-c2ccc3c(c2)CN(C2CCC(=O)NC2=O)C3=O)nc(N)c1C#N` (stereo not shown) [Example 172, 2-amino-6-(2-(2,6-dioxopiperidin-3-yl)-1-oxoisoindolin-5-yl)-4-propylnicotinonitrile], for which the DC50 in experiment [1] was 30 nM.

In the case of `N#Cc1c(C(F)(F)F)cc(-c2ccc3c(c2)CN(C2CCC(=O)NC2=O)C3=O)nc1N` (stereo not shown) [Example 177, 2-amino-6-(2-(2,6-dioxopiperidin-3-yl)-1-oxoisoindolin-5-yl)-4-(trifluoromethyl)nicotine-nitrile], in experiment [1], the DC50 turned out to be 40 nM.

In the case of `CNc1nc(-c2ccc3c(c2)CN(C2CCC(=O)NC2=O)C3=O)cc2c1ncn2C` (stereo not shown) [Example 61, 3-{5-[1-methyl-4-(methylamino)-1H-imidazo[4,5-c]pyridin-6-yl]-1-oxo-2,3-dihydro-1H-isoindol-2-yl}piperidine-2,6-dione], the DC50 in experiment [1] was 7 nM.

`O=C1CCC(N2Cc3cc(-c4nc5ccccc5nc4C4CC4)ccc3C2=O)C(=O)N1` (stereo not shown) [Example 97, 3-(5-(3-cyclopropylquinoxalin-2-yl)-1-oxoisoindolin-2-yl)piperidine-2,6-dione]: the DC50 in experiment [1] came to 90 nM.

For `N#Cc1c(C(F)F)cc(N)nc1-c1ccc2c(c1)CN(C1CCC(=O)NC1=O)C2=O` (stereo not shown) [Example 174, 6-amino-4-(difluoromethyl)-2-(2-(2,6-dioxopiperidin-3-yl)-1-oxoisoindolin-5-yl) nicotinonitrile], the DC50 in experiment [1] was 350 nM.

In the case of `CC(C)(C)Cn1ccc(=O)c2c(N)nc(-c3ccc4c(c3)CN(C3CCC(=O)NC3=O)C4=O)cc21` (stereo not shown) [Example 46, 3-{5-[5-Amino-1-(2,2-dimethylpropyl)-4-oxo-1,4-dihydro-1,6-naphthyridin-7-yl]-1-oxo-2,3-dihydro-1H-isoindol-2-yl}piperidine-2,6-dione], in experiment [1], the DC50 was found to be 3 nM.
